Series [1] relates to CREB (Ser133) / ATF-1 (Ser63) phosphorylation. Kind of series: Binding of anti-phospho-CREB/ATF-1 antibody in U937 cells (flow cytometry). It is filed as cell-based, human. As to conditions: 1 hour, 20 μM. Here is the method:
Cells were suspended at 10^6 cells/ml in cRPMI and incubated for 1 hour at 37°C with 20 μM ICE compounds or forskolin (positive control). Negative control samples were treated with DMSO at equal volume. Cells were fixed with 20x volume of pre-warmed 1x solution BD Phosflow^TM Lyse/Fix Buffer (cat. 558049), incubated at 37°C for 10 minutes, permeabilized with BD Phosflow^TM Perm buffer II (cat. 558052), and incubated on ice for 30 minutes. Permeabilized cells were then washed and stained with BD Phosflow™ Alexa Fluor® 488 Mouse Anti-CREB (pS133) / ATF-1 (pS63) clone J151-21 (cat. 558435) according to the manufacturer's instructions.
On the technique in general: A flow cytometer gives signals particle by particle.

A further series relates to U937 cells. Kind of series: MultiCyt 4-Plex apoptosis assay. In kind it is cell-based, human. The settings on record: for EC50: Homo sapiens, U-937, 24 h. Here is the method: Apoptosis was determined using MultiCyt® 4-Plex Apoptosis Screening Kit (IntelliCyt, cat. 90053). The kit provides four different apoptosis endpoints that include effector caspases 3 and 7 activation, phosphatidylserine surface expression, mitochondrial membrane depolarization and cell membrane integrity. […] Cell membrane damage is detected by the uptake of a proprietary DNA intercalating agent analogous to 7-aminoactinomycin D.
384-well plates (Greiner 784201), pre-loaded with 5 μL cRPMI were stamped using a pintool with 100 nl of DMSO-solubilized compounds from the 100-fold concentrated stock solution. Next, 5 μL U937 cells (2 × 10^6/ml in cRPMI) were added to wells and mixed, and plates were foil-sealed. Compounds (Table 1) were tested in dose response at final concentrations ranging from 15.2 nM to 100 μM (1% DMSO final). Vehicle (DMSO) was used as a negative control. After 24 h incubation under culture conditions, the IntelliCyt MultiCyt 4-Plex Apoptosis Screening Kit was used according to manufacturer's protocol. The data were acquired using iQue Screener Platform (IntelliCyt). Singlet cell populations were analyzed for individual measures of apoptosis, and gates were set based on control histograms.

The next series has as its system normal human PBMCs. Nature of the series: CellTiter-Glo cell viability. It is filed as cell-based. As to conditions: PBMC, overnight, n = 6, ± SEM, read-out: Compound EC50, PBMCs (cell viability). Here is the method: Healthy PBMCs were obtained from volunteers. Mononuclear cells were purified using Mono-Poly resolving medium (MP Biomedicals, cat. 091698049) according to manufacturer's instructions. PBMCs were resuspended in cRPMI and kept on ice prior to use.
Cell viability was determined with the CellTiter-Glo® Luminescent Cell Viability Assay (Promega). Greiner 655083 had 100 μL cRPMI +/− 4×10^4 cells/well, and dose response curves of compounds ranged from 100 μM to 1.53 nM (1% DMSO). Wells with DMSO-only served as negative controls. Samples were incubated overnight, and the assay was completed according to the manufacturer's protocol. Plates were analyzed using a Victor^3V™ 1420 Multilabel Counter (Perkin Elmer).
A general note: Cellular ATP, detected with luciferase, serves as a proxy for viable cell number.

Details of series [2]: method as in as printed in each cell. The settings on record: previously reported; cited from earlier work.
On the set-up of series [3]: method as in PMID 19505822. The settings on record: cited from earlier work.
On the set-up of series [4]: method as in PMID 19505822. The settings on record: cited from earlier work. The source holds these as a separate data set.
[5] abbreviates: mean of converged EC50s, read-out: Compound EC50, Means (of the apoptosis endpoints).
Where [6] appears, read: n = 4, ± SEM, read-out: Compound EC50, Annexin-V +.
The mark [7] stands for this setting: n = 4, ± SEM, read-out: Compound EC50, Cell membrane damage.
Where [8] appears, read: n = 4, ± SEM, read-out: Compound EC50, Mitochondrial depolarization.
Where [9] appears, read: even at the highest ICE concentrations.
The mark [10] stands for this setting: n = 4, ± SEM, read-out: Compound EC50, Active Caspase 3/7 +.

Each structure is given as a SMILES string. Like-named read-outs stand apart in the source and are kept apart here.

In the case of `Oc1c(I)cc(Cl)c2cccnc12` [Clioquinol], the “Binding of anti-CREB (pS133) / ATF-1 (pS63) specific antibodies” value in series [1] is given as “comparable to the adenylate cyclase stimulator forskolin positive control”. In addition, the EC50 is 26.7 µM in the series on U937 cells (setting [5]); 51.1 ± 26.2 µM with U937 cells (setting [6]); 11.1 ± 0.48 µM with U937 cells (setting [7]); 17.9 ± 2.3 µM in the series on U937 cells (setting [8]); 87.8 ± 46.8 µM in the series with normal human PBMCs. For the same compound, the Anticancer effects result in series [2] is “↓cyclin D1 [110]; ↑p21, p27, p53 [106]”. For the same compound, the “Potential mechanism(s) of action” value in series [2] is “↓NF-κB activation [108, 112]; ionophore/chelator activity [106, 108, 112]; proteasome inhibition [107, 109]”.
On to `C[C@H]1COC2=C1C(=O)C(=O)c1c2ccc2c1CCCC2(C)C` [Cryptotanshinone], for which the EC50 in the series on U937 cells (setting [5]) is 25.8 µM; with U937 cells (setting [7]), 30.7 ± 6.83 µM; in the series with U937 cells (setting [8]), 20.9 ± 6.96 µM; in the series on normal human PBMCs, 11.8 ± 3.11 µM. Further, the “Effect on annexin-V binding” value with U937 cells (setting [9]) is “very small effect”. In addition, in the series with U937 cells (setting [9]), the “Effect on caspase activation” value is on record as “very small effect”. For the same compound, the Anticancer effects entry in series [2] is “↓cyclin D1, Bcl-2 [47, 115, 116]; ↑p53, Chk1, Chk2 [120]”. In addition, the “Potential mechanism(s) of action” value in series [2] is “↓mTOR, STAT3 signaling [116, 117]; ↓eIF-4E [47]”.
For the compound `C=C1C(=O)O[C@H]2[C@H]1CC/C(C)=C/CC[C@@]1(C)O[C@@H]21` [Parthenolide], the “Binding of anti-CREB (pS133) / ATF-1 (pS63) specific antibodies” value in series [1] was “comparable to the adenylate cyclase stimulator forskolin positive control”. The EC50 was determined as 7.44 µM in the series on U937 cells (setting [5]); 12.4 ± 2.51 µM in the series on U937 cells (setting [10]); 7.55 ± 1.18 µM with U937 cells (setting [6]); 4.34 ± 0.9 µM with U937 cells (setting [7]); 5.52 ± 1.02 µM in the series on U937 cells (setting [8]); 56 ± 23.3 µM in the series with normal human PBMCs. Besides, in series [3], the water-solubility entry is “Poor”. The bioavailability entry in series [4] is listed as “Poor”. Further, in series [2], the Anticancer effects entry is “↓VEGF expression & metastasis [61, 124, 125]; ↑p53 activation [48]; ↓cyclin D1 [61, 122]”. Besides, the “Potential mechanism(s) of action” value in series [2] was “↓NF-κB & AP-1 activation [48, 61, 124, 126, 127]; ↓MAPK/ERK signaling [126, 127]; ↓STAT signaling [128]; ↑ROS[48, 65, 128]”.
Take `O=C1C=C2C(=CCOC2O)O1` (centres unmarked) [Patulin]: the EC50 in the series on U937 cells (setting [5]) came out at 4.95 µM; in the series on U937 cells (setting [10]), 12.8 ± 0.09 µM; in the series with U937 cells (setting [6]), 3.75 ± 0.63 µM; with U937 cells (setting [7]), 1.54 ± 0.02 µM; in the series with U937 cells (setting [8]), 1.72 ± 0.94 µM; in the series on normal human PBMCs, 246 ± 181 µM. The Anticancer effects result in series [2] was “↓ERK1/2 activation [52, 133]; ↑UPR[52, 133]; ↑intracellular [Ca2+] [134]”. Moreover, the “Potential mechanism(s) of action” value in series [2] is “↑ROS, DNA damage [57, 59, 132, 133, 135]; ↓glutathione [133, 135]”.

Values taken from publication PMC5085131, “Cyclic AMP efflux inhibitors as potential therapeutic agents for leukemia” (Oncotarget, 2016).
